Test results: US20220331310A1, “METHODS FOR ALLEVIATING PTERYGIUM-ASSOCIATED WORRY ABOUT EYE APPEARANCE” (Cloudbreak Therapeutics, LLC, priority 2019, published 2022)

System: Patients with Primary or Recurrent Pterygium
Assay: Phase 2a vehicle-controlled study of nintedanib ophthalmic solution; patient questionnaire on symptoms and life impacts (1-5 scale)
Type: in vivo, human
Conditions: 0.2% nintedanib ophthalmic solution, topical ocular, TID for 28 days, versus vehicle
Description: A Phase 2a Multicenter, Randomized, Vehicle-Controlled, Dose Escalating Study to Evaluate the Safety, Efficacy and Pharmacokinetics of Nintedanib Ophthalmic Solution in Patients with Primary or Recurrent Pterygium
Objectives of the study were to evaluate ocular and systemic safety of nintedanib and its efficacy in reducing pterygium vascularity in primary or recurrent patients. Several other secondary endpoints were also assessed, including the assessment of symptoms and life impacts by using a questionnaire based on a numerical 1-5 scale. The double-masked, vehicle-controlled, parallel study was conducted with 28 days TID repeat ocular dosing of vehicle and 0.2% nintedanib.
The disclosure focused on the relevant questionnaire endpoint that included 15 questions regarding the ocular symptoms, vision related functioning and the impact on life quality in patients. The questionnaire was derived from the validated Visual Functioning Questionnaire-25 (VFQ-25) (National Eye Institute, 2000) and the validated Ocular Surface Disease Index (OSDI) questionnaire (Schiffman R M, Christianson M D, Jacobsen G, Hirsch J D, Reis B L. Reliability and validity of the Ocular Surface Disease Index. Arch Ophthalmol. 2000; 118 (5): 615-621.). The patients were asked to rate severity using a 5-point scale, with 5 being the most severe.

COC(=O)c1ccc2c(c1)NC(=O)/C2=C(\Nc1ccc(N(C)C(=O)CN2CCN(C)CC2)cc1)c1ccccc1 [nintedanib]
frequency of worry about eye appearance (question "Worry about eye appearance?", change of questionnaire score) (5-point scale, 5 most severe, FIG. 1): significantly better improvements than the vehicle group
questionnaire questions showing a significant difference between drug and vehicle (15-question questionnaire derived from VFQ-25 and OSDI): only one out of fifteen questions showed a significant difference
